Assay results from patent publication US20060160086A1, “Method for continuous detection of an analyte, trifunctional detecting reagent used and detecting device” (Commissariat A L'Energie Atomique, priority 2002, published 2006).
Ends that are not written are not given here. * marks the point of attachment. Biotin = O=C1N[C@H]2[C@H](CS[C@H]2CCCCC(=O)*)N1

Experiments:
[1] = biological target: T1, neutravidin (Gallus gallus, UniProt P02701); assay: Attachment of the fluorescein-labeled tripod Y to neutravidin-coated microtitration plates (fluorescence); format: binding; conditions: neutravidin-coated microplate, 3 hours at ambient temperature, excitation 485 nm / emission 530 nm
T1 construct: purchased Pierce 31 000
Procedure: 100 μl of a solution of neutravidin (sold under the reference 31 000 by the company Pierce) at 5 μg/ml in a 0.1 M potassium phosphate buffer, pH 7.4 are deposited into the wells of black microplates sold under the name High Bind Matrix by the company VWR (reference 80120696). After 16 hours at ambient temperature, the plates are washed with washing buffer and then saturated by depositing 300 μl/well of saturation buffer for 16 hours at ambient temperature. The plates are stored with the same buffer (300 μl/well) at 4° C.
A dilution range for the tripod Y (labeled with fluorescein) synthesized above in example 4, in 0.1 M potassium phosphate buffer, pH 7.4, is prepared by producing a first point of the range at a concentration of 0.5 μM, and then 4 successive ⅓ dilutions (i.e. 0.167 μM; 0.055 μM; 0.0185 μM and 6.2×10^−3 μM). […] The plate is read with an analyst AD system fluorimeter (LJL Biosystem) for reading microplates, at an excitation wavelength of 485 nm and at an emission wavelength of 530 nm, which are the excitation and emission wavelengths corresponding to fluorescein.
The curves obtained with neutravidin (black square) and without neutravidin (black triangle: control) are represented in the attached FIG. 2, in which the fluorescence (in arbitrary units) is expressed as a function of the concentration of tripod Y in accordance with the invention (μM).

[2] = tested on: monoclonal antibody SP31; conditions: peptide analog of substance P comprising an alanine at position 10 [Ala^10]; cited from earlier work

T1 sequence (P02701 25-152): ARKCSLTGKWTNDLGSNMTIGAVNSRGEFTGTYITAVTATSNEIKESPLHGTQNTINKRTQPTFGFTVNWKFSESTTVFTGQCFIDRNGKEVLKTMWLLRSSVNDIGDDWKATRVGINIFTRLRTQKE

tripod: substance P analog (SEQ ID No. 2) labeled with fluorescein; biotin for attachment to neutravidin support (GATCTGCTGGCATCT; fluorescein label and biotin, positions not given here)
concentration of tripod up to which fluorescence increases proportionally, then plateau (saturation of the neutravidin binding sites) [1]: 0.17 µM

KSSK(Biotin)RPAPQQFFGAM-NH2 [substance P analog]
cross reactivity with substance P for the monoclonal antibody SP31 [2]: 13%
